Here are results for two compounds from PMC2364081, “Antagonists of retinoic acid receptors (RARs) are potent growth inhibitors of prostate carcinoma cells” (British Journal of Cancer, 2001).

Data set [1] has as its system LNCaP ITS+ cells. Description: Plate colony formation (clonal proliferation) assay, serum-free (ITS+)-grown LNCaP. It is filed as cell-based, human. The conditions noted are these: LNCaP, serum-free (ITS+), 14 days. An excerpt: (§1) Prostate cancer is one of the most common cancers in European and American males and has a high mortality rate (Landis et al, 1998; Rosenthal, 1998). Early disease is managed conservatively in Europe although in selected patients surgery is curative. In advanced disease, androgen ablation can produce symptomatic improvement, but the tumour often re-emerges in an androgen- independent and incurable form. One proposed treatment for androgen-independent prostate carcinoma is differentiation ther- apy, in which agents such as all-trans-retinoic acid (ATRA), 9-cis- retinoic acid and 1, 25-dihydroxyvitamin D3 (D3 ) are used to induce growth arrest, differentiation and sometimes apoptosis of the tumour cells (Liang et al, 1999; de Vos et al, 1997; Skowronski et al, 1994; Hedlund et al, 1997). ATRA and synthetic analogues exert their biological effects by binding to two families of retinoid receptors, […]. These are ligand-dependent transcription factors of the steroid/thyroid hormone nuclear receptor superfamily (Chambon 1994; Boehm et al, 1995). Activated RARs bind to retinoic acid-responsive elements (RAREs) in the promoters of genes and thus regulate gene expression. They also antagonize the activity of the tran- scription factor AP1 and thereby down-regulate the expression of some AP1-activated genes (Nagpal et al, 1995). One approach to unravelling the contributions of RAR sub-types to these actions has been the development of synthetic retinoids with selective activities at individual RARs and RXRs. For example, the diaryl- acetylenic retinoids allow separation of transactivation and AP1 antagonism functions at RAR (Nagpal et al, 1995). Recently, compounds that are selective for particular RAR sub-types have been synthesized: these include both agonists and antagonists (Chandraratna, 1995; Teng et al, 1999; Johnson et al, 1999). The functional selectivity of these compounds may open the way to achieving differentiation or apoptosis of tumour cells with minimal systemic side effects (Chandraratna, 1995). Cell lines that are commonly used in the evaluation of investiga- tional agents for prostate cancer include LNCaP, DU-145 and PC- 3. […] These lines are relatively insensitive to growth inhibition and induction of apoptosis by ATRA and by synthetic agonists. […] Fenretinide (4HPR) induces apoptosis of LNCaP and of PC-3 cells at 1-5 M and 25 µM, respectively (Pienta et al, 1993; Heish and Wu, 1997). Pfahl and colleagues examined the growth inhibitory effects of a panel of receptor-selective retinoids against DU145 and PC-3 cells and achieved complete growth inhibition and induction of apoptosis between 1 M and 10 M (Lu et al, 1999). […] Antagonists of retinoic acid receptors (RARs) are potent growth inhibitors of prostate carcinoma cells LA Hammond1 , CH Van Krinks2 , J Durham2 , SE Tomkins2 , RD Burnett3 , EL Jones1 , RAS Chandraratna3 and G Brown2 Divisions of 1 Cancer Studies and of 2 Immunity and Infection, University of Birmingham Medical School, Edgbaston, Birmingham B15 2TT, UK and 3 Retinoid Research, Allergan Inc., Irvine, California, USA Summary Novel synthetic antagonists of retinoic acid receptors (RARs) have been developed. To avoid interference by serum retinoids when testing these compounds, we established serum-free grown sub-lines (>3 years) of the prostate carcinoma lines LNCaP, PC3 and DU145. […] A component(s) of serum and of LNCaP-conditioned medium diminishes the activity of antagonists: this factor is not the most likely candidates IGF-1 and EGF. In vitro studies of RAR antagonists together with data from RAR-null mice lead to the hypothesis that RAR-regulated gene transcription is necessary for the survival and maintenance of prostate epithelium. […]

For data set [2], the system named is PC3 ITS+ cells. Description: Plate colony formation assay, serum-free (ITS+)-grown PC3. It is filed as cell-based, human. The conditions noted are these: 14 days. From the text:
(§2) Prostate cancer is one of the most common cancers in European and American males and has a high mortality rate (Landis et al, 1998; Rosenthal, 1998). Early disease is managed conservatively in Europe although in selected patients surgery is curative. In advanced disease, androgen ablation can produce symptomatic improvement, but the tumour often re-emerges in an androgen- independent and incurable form. One proposed treatment for androgen-independent prostate carcinoma is differentiation ther- apy, in which agents such as all-trans-retinoic acid (ATRA), 9-cis- retinoic acid and 1, 25-dihydroxyvitamin D3 (D3 ) are used to induce growth arrest, differentiation and sometimes apoptosis of the tumour cells (Liang et al, 1999; de Vos et al, 1997; Skowronski et al, 1994; Hedlund et al, 1997). ATRA and synthetic analogues exert their biological effects by binding to two families of retinoid receptors, the RARs (RAR, RAR and RAR) and the RXRs (RXR, RXR and RXR). These are ligand-dependent transcription factors of the steroid/thyroid hormone nuclear receptor superfamily (Chambon 1994; Boehm et al, 1995). Activated RARs bind to retinoic acid-responsive elements (RAREs) in the promoters of genes and thus regulate gene expression. They also antagonize the activity of the tran- scription factor AP1 and thereby down-regulate the expression of some AP1-activated genes (Nagpal et al, 1995). One approach to unravelling the contributions of RAR sub-types to these actions has been the development of synthetic retinoids with selective activities at individual RARs and RXRs. For example, the diaryl- acetylenic retinoids allow separation of transactivation and AP1 antagonism functions at RAR (Nagpal et al, 1995). Recently, compounds that are selective for particular RAR sub-types have been synthesized: these include both agonists and antagonists (Chandraratna, 1995; Teng et al, 1999; Johnson et al, 1999). The functional selectivity of these compounds may open the way to achieving differentiation or apoptosis of tumour cells with minimal systemic side effects (Chandraratna, 1995). […]

The test system of data set [3] is DU145 ITS+ cells. Description: Plate colony formation assay, serum-free (ITS+)-grown DU145. The format is cell-based, human. To be noted: 14 days.
Description: as §2

In data set [4] the test system is LNCaP, PC3 and DU145 cells. Description: Plate colony formation assay, stated over the three serum-free grown lines. The format is cell-based, human.
Description: as §1

The subject of data set [5] is FBS-grown LNCaP, DU145 and PC3 cells. Description: Plate colony formation assay, stated over the three FBS-grown lines. It is filed as cell-based, human. The conditions noted are these: 100 nM.
Description: as §2, with “1995).” for “1995). One approach to unravelling the contributions of RAR sub-types to these actions has been the development of synthetic retinoids with selective activities at individual RARs and RXRs. For example, the diaryl- acetylenic retinoids allow separation of transactivation and AP1 antagonism functions at RAR (Nagpal et al, 1995). Recently, compounds that are selective for particular RAR sub-types have been synthesized: these include both agonists and antagonists (Chandraratna, 1995; Teng et al, 1999; Johnson et al, 1999). The functional selectivity of these compounds may open the way to achieving differentiation or apoptosis of tumour cells with minimal systemic side effects (Chandraratna, 1995).”

In data set [6] the test system is HL60 cells. Description: ATRA-induced differentiation of HL60 cells to neutrophils (nitroblue tetrazolium reduction). The format is cell-based, human. To be noted: antagonist at 100 nM added with 100 nM ATRA.
Description: as §2, with “1995).” for “1995). One approach to unravelling the contributions of RAR sub-types to these actions has been the development of synthetic retinoids with selective activities at individual RARs and RXRs. For example, the diaryl- acetylenic retinoids allow separation of transactivation and AP1 antagonism functions at RAR (Nagpal et al, 1995). Recently, compounds that are selective for particular RAR sub-types have been synthesized: these include both agonists and antagonists (Chandraratna, 1995; Teng et al, 1999; Johnson et al, 1999). The functional selectivity of these compounds may open the way to achieving differentiation or apoptosis of tumour cells with minimal systemic side effects (Chandraratna, 1995).”

In data set [7] the test system is HL60 cells. Description: Clonal growth of single serum-free grown HL60 cells in microtitre wells. It is filed as cell-based, human. The conditions noted are these: 100 nM.
Description: as §1

In data set [8] the target is T1, RARα (Homo sapiens, UniProt P10276).
T1 sequence (P10276 1-462): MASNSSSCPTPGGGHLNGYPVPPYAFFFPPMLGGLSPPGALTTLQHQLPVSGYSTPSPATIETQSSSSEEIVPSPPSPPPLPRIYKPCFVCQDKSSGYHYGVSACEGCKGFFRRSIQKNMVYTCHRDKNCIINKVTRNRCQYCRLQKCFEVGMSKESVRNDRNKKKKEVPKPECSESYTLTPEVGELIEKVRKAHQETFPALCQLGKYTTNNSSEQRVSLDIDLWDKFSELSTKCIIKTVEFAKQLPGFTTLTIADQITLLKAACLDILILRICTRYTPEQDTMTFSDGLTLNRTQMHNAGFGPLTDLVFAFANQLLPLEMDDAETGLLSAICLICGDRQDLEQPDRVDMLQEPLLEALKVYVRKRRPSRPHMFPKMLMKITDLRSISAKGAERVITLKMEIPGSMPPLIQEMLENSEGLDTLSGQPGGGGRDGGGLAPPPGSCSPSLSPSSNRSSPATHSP
The data set is described as follows: Binding to baculovirus-expressed RARα. Also noted: made in house. To be noted: baculovirus-expressed receptor.
Description: as §1

The target in data set [9] is T2, RARβ (Homo sapiens, UniProt P10826).
T2 sequence (P10826 1-455): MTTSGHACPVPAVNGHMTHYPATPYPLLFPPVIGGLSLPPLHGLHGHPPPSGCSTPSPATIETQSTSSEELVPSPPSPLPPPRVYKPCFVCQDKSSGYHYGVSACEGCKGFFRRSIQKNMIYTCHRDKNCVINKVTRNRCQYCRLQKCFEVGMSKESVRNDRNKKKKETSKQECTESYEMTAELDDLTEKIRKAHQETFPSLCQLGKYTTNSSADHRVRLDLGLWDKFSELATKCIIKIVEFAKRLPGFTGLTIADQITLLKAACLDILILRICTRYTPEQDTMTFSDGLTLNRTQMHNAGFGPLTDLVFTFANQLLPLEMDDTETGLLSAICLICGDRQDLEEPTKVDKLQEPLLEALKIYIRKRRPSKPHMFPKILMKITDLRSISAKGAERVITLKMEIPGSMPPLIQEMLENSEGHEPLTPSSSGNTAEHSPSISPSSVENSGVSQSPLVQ
The data set is described as follows: Binding to baculovirus-expressed RARβ. Also noted: made in house. To be noted: baculovirus-expressed receptor.
Description: as §1

Data set [10] has as its target T3, RARγ (Homo sapiens, UniProt P13631).
T3 sequence (P13631 1-454): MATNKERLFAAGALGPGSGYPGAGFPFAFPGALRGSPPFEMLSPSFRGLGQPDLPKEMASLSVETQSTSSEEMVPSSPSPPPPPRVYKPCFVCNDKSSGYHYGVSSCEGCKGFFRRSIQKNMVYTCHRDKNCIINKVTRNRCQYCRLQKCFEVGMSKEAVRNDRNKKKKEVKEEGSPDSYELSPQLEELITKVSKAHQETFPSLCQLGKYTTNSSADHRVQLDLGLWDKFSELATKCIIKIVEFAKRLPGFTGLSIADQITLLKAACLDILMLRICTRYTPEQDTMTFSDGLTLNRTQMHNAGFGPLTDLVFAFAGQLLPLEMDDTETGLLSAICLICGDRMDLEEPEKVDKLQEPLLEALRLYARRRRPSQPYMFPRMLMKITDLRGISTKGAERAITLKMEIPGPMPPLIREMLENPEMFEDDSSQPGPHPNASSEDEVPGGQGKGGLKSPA
Description: Binding to baculovirus-expressed RARγ. Details: made in house. The conditions noted are these: baculovirus-expressed receptor.
Description: as §1

The subject of data set [11] is FBS-grown DU145 cells. The data set is described as follows: Plate colony formation assay, FBS-grown DU145. It is filed as cell-based, human. Also noted: dose or concentration left out as unconfirmed. To be noted: ATRA.
Description: as §2, with “1995).” for “1995). One approach to unravelling the contributions of RAR sub-types to these actions has been the development of synthetic retinoids with selective activities at individual RARs and RXRs. For example, the diaryl- acetylenic retinoids allow separation of transactivation and AP1 antagonism functions at RAR (Nagpal et al, 1995). Recently, compounds that are selective for particular RAR sub-types have been synthesized: these include both agonists and antagonists (Chandraratna, 1995; Teng et al, 1999; Johnson et al, 1999). The functional selectivity of these compounds may open the way to achieving differentiation or apoptosis of tumour cells with minimal systemic side effects (Chandraratna, 1995).”

The subject of data set [12] is LNCaP cells. To be noted: ref Gao et al, 1999; cited from earlier work.
In data set [13] the test system is PC-3 and DU-145 cells. Also noted: method as in Lu et al, 1997 and 1999; dose or concentration left out as unconfirmed. The conditions noted are these: ref Lu et al, 1997 and 1999; cited from earlier work.

In the case of `Cc1ccc(C2=CC(C)(C)Oc3c(Br)cc(C(=O)Nc4ccc(C(=O)O)c(F)c4)cc32)cc1` [AGN194301], the IC50 is 203 nM in data set [1]; 235 nM in [2]; 201 nM in data set [3]; approximately 200 nM in data set [4] (stated over all three serum-free grown lines, read-out: concentration inhibiting colony formation by 50% (IC50)). The “inhibition of colony formation” value is 42-74% in data set [4] (100 nM, three lines in ITS+ medium) and 0-19% in [5]. Besides, in data set [6], the “percentage of mature cells” value is 1%. The “viability of the single cells” value in [7] is on record as more than 95%. Further, the “effect on clonal growth of HL60 cells” value in data set [7] (4 days) is “did not adversely affect”. Moreover, the “number of viable cells at day 4” value in data set [7] (control 18) is 22. The cloning efficiency in [7] (same as untreated) is given as 90-93%. Moreover, the Kd in data set [8] is 3 nM; in data set [9], 320 nM; in [10], 7250 nM.
Consider `CC1=C(/C=C/C(C)=C/C=C/C(C)=C/C(=O)O)C(C)(C)CCC1` [ATRA, all-trans retinoic acid], for which the “effect on colony formation” value in data set [4] (100 nM, three cell lines, ITS+ and FBS cells) is “little effect”. The “reduction in colony formation” value in [11] was less than 1%. In data set [12], the concentration inducing apoptosis was 2 µM. Besides, the “growth inhibition and apoptosis” value in data set [13] is reported as “neither inhibits the growth nor induces apoptosis”.
